Experimental data as given in ChEMBL document CHEMBL4765227, “Hit to lead optimization of a series of N-[4-(1,3-benzothiazol-2-yl)phenyl]acetamides as monoacylglycerol lipase inhibitors with potential anticancer activity” (Eur J Med Chem, 2016).

Columns and labels:
Assay type in all cases: functional
PC-3 = assay: Growth inhibition of human PC-3 cells incubated for 48 hrs by sulforhodamine B assay
BT-549 = assay: Growth inhibition of human BT-549 cells incubated for 48 hrs by sulforhodamine B assay
SF-539 = assay: Growth inhibition of human SF-539 cells incubated for 48 hrs by sulforhodamine B assay
DU-145 = assay: Growth inhibition of human DU-145 cells incubated for 48 hrs by sulforhodamine B assay
OVCAR-5 = assay: Growth inhibition of human OVCAR-5 cells incubated for 48 hrs by sulforhodamine B assay
T47D = assay: Growth inhibition of human T47D cells incubated for 48 hrs by sulforhodamine B assay
MDA-MB-231 = assay: Growth inhibition of human MDA-MB-231 cells incubated for 48 hrs by sulforhodamine B assay
NCI-H23 = assay: Growth inhibition of human NCI-H23 cells incubated for 48 hrs by sulforhodamine B assay
RXF 393 = assay: Growth inhibition of human RXF 393 cells incubated for 48 hrs by sulforhodamine B assay
SNB-19 = assay: Growth inhibition of human SNB-19 cells incubated for 48 hrs by sulforhodamine B assay
M14 = assay: Growth inhibition of human M14 cells incubated for 48 hrs by sulforhodamine B assay
MDA-MB-435 = assay: Growth inhibition of human MDA-MB-435 cells incubated for 48 hrs by sulforhodamine B assay
NCI-H522 = assay: Growth inhibition of human NCI-H522 cells incubated for 48 hrs by sulforhodamine B assay
SK-MEL-5 = assay: Growth inhibition of human SK-MEL-5 cells incubated for 48 hrs by sulforhodamine B assay
A498 = assay: Growth inhibition of human A498 cells incubated for 48 hrs by sulforhodamine B assay
TK-10 = assay: Growth inhibition of human TK-10 cells incubated for 48 hrs by sulforhodamine B assay
HCT-15 = assay: Growth inhibition of human HCT-15 cells incubated for 48 hrs by sulforhodamine B assay
Malme-3M = assay: Growth inhibition of human Malme-3M cells incubated for 48 hrs by sulforhodamine B assay
K562 = assay: Growth inhibition of human K562 cells incubated for 48 hrs by sulforhodamine B assay
UACC-62 = assay: Growth inhibition of human UACC-62 cells incubated for 48 hrs by sulforhodamine B assay
HCC 2998 = assay: Growth inhibition of human HCC 2998 cells incubated for 48 hrs by sulforhodamine B assay
SF-295 = assay: Growth inhibition of human SF-295 cells incubated for 48 hrs by sulforhodamine B assay
UACC-257 = assay: Growth inhibition of human UACC-257 cells incubated for 48 hrs by sulforhodamine B assay
MCF7 = assay: Growth inhibition of human MCF7 cells incubated for 48 hrs by sulforhodamine B assay
Hs-578T = assay: Growth inhibition of human Hs-578T cells incubated for 48 hrs by sulforhodamine B assay
CAKI-1 = assay: Growth inhibition of human CAKI-1 cells incubated for 48 hrs by sulforhodamine B assay
HOP-92 = assay: Growth inhibition of human HOP-92 cells incubated for 48 hrs by sulforhodamine B assay
UO-31 = assay: Growth inhibition of human UO-31 cells incubated for 48 hrs by sulforhodamine B assay
ACHN = assay: Growth inhibition of human ACHN cells incubated for 48 hrs by sulforhodamine B assay
SW-620 = assay: Growth inhibition of human SW-620 cells incubated for 48 hrs by sulforhodamine B assay
KM12 = assay: Growth inhibition of human KM12 cells incubated for 48 hrs by sulforhodamine B assay
OVCAR-4 = assay: Growth inhibition of human OVCAR-4 cells incubated for 48 hrs by sulforhodamine B assay
HOP-62 = assay: Growth inhibition of human HOP-62 cells incubated for 48 hrs by sulforhodamine B assay
MOLT-4 = assay: Growth inhibition of human MOLT-4 cells incubated for 48 hrs by sulforhodamine B assay
SN12C = assay: Growth inhibition of human SN12C cells incubated for 48 hrs by sulforhodamine B assay
SK-MEL-28 = assay: Growth inhibition of human SK-MEL-28 cells incubated for 48 hrs by sulforhodamine B assay
[1] = read-out: LC50 (the source's name)

In the case of O=C(CNc1c(Cl)cccc1Cl)Nc1ccc(-c2nc3ccccc3s2)cc1, the GI50 (PC-3) is reported as 1.73 µM, the TGI (PC-3) is reported as 3.47 µM and the CC50 (PC-3; [1]) is reported as 6.98 µM. The GI50 (BT-549) was 1.7 µM, the LC50 (concentration killing 50% of cells) (BT-549) was 44.4 µM and the TGI (BT-549) was 5.39 µM. The GI50 (SF-539) was 1.83 µM, the LC50 (SF-539) was 6.34 µM and the TGI (SF-539) was 3.41 µM. It also gave a GI50 (DU-145) of 3.33 µM, an LC50 (concentration killing 50% of cells) (DU-145) of 32.2 µM and a TGI (DU-145) of 10.4 µM. The GI50 (OVCAR-5) was 1.92 µM, the LC50 (concentration killing 50% of cells) (OVCAR-5) was 9.53 µM and the TGI (OVCAR-5) was 4.28 µM. For the same molecule, the GI50 (T47D) was 1.86 µM, the LC50 (concentration killing 50% of cells) (T47D) was greater than 100 µM and the TGI (T47D) was 5.44 µM. For the same molecule, the GI50 (MDA-MB-231) was 2.73 µM, the LC50 (concentration causing 50% cell kill) (MDA-MB-231) was greater than 100 µM and the TGI (MDA-MB-231) was 7.35 µM. The GI50 (NCI-H23) was 2 µM, the LC50 (lethal concentration 50%) (NCI-H23) was 17.1 µM and the TGI (NCI-H23) was 4.59 µM. The GI50 (RXF 393) was 1.63 µM, the LC50 (concentration killing 50% of cells) (RXF 393) was 7.27 µM and the TGI (RXF 393) was 3.44 µM. For the same molecule, the GI50 (SNB-19) was 2.5 µM, the LC50 (SNB-19) was 80 µM and the TGI (SNB-19) was 9.28 µM. The GI50 (M14) was 2.2 µM, the TGI (M14) was 6.55 µM and the CC50 (M14; [1]) was 60.1 µM. For the same molecule, the GI50 (MDA-MB-435) was 2.6 µM, the LC50 (MDA-MB-435) was 99.6 µM and the TGI (MDA-MB-435) was 11.3 µM. The GI50 (NCI-H522) was 1.29 µM, the LC50 (50% lethal concentration) (NCI-H522) was 7.58 µM and the TGI (NCI-H522) was 3.13 µM. For the same molecule, the GI50 (SK-MEL-5) was 1.43 µM, the LC50 (50% lethal concentration) (SK-MEL-5) was 5.88 µM and the TGI (SK-MEL-5) was 2.9 µM. It also gave a GI50 (A498) of 13.8 µM, a TGI (A498) of 26.9 µM and a CC50 (A498; [1]) of 52.4 µM. It also gave a GI50 (TK-10) of 2.15 µM, an LC50 (TK-10) of 18.3 µM and a TGI (TK-10) of 5.41 µM. It also gave a GI50 (HCT-15) of 1.58 µM, a TGI (HCT-15) of 4.5 µM and a CC50 (HCT-15; [1]) of 53.7 µM. For the same molecule, the GI50 (Malme-3M) was 1.71 µM, the TGI (Malme-3M) was 3.43 µM and the CC50 (Malme-3M; [1]) was 6.88 µM. The GI50 (K562) was 2.86 µM, the LC50 (K562) was greater than 100 µM and the TGI (K562) was 11.5 µM. The GI50 (UACC-62) was 1.72 µM, the LC50 (UACC-62) was 8.97 µM and the TGI (UACC-62) was 3.92 µM. It also gave a GI50 (HCC 2998) of 1.89 µM, a TGI (HCC 2998) of 3.56 µM and a CC50 (HCC 2998; [1]) of 6.68 µM. For the same molecule, the GI50 (SF-295) was 15.3 µM, the LC50 (concentration causing 50% net cell kill) (SF-295) was 60.5 µM and the TGI (SF-295) was 30.4 µM. It also gave a GI50 (UACC-257) of 3.61 µM, an LC50 (UACC-257) of 63.1 µM and a TGI (UACC-257) of 11.9 µM. It also gave a GI50 (MCF7) of 0.0371 µM, an LC50 (MCF7) of 39.8 µM and a TGI (MCF7) of 2.49 µM. It also gave a GI50 (Hs-578T) of 5.58 µM, an LC50 (Hs-578T) greater than 100 µM and a TGI (Hs-578T) of 69.3 µM. For the same molecule, the GI50 (CAKI-1) was 2.3 µM, the LC50 (concentration killing 50% of cells) (CAKI-1) was 27.4 µM and the TGI (CAKI-1) was 6.71 µM. The GI50 (HOP-92) was 1.88 µM, the LC50 (concentration killing 50% of cells) (HOP-92) was 26.7 µM and the TGI (HOP-92) was 6.3 µM. The GI50 (UO-31) was 1.5 µM, the LC50 (concentration killing 50% of cells) (UO-31) was 8.5 µM and the TGI (UO-31) was 3.57 µM. It also gave a GI50 (ACHN) of 1.82 µM, an LC50 (ACHN) of 6.63 µM and a TGI (ACHN) of 3.47 µM. The GI50 (SW-620) was 2.01 µM, the LC50 (concentration killing 50% of cells) (SW-620) was 9.85 µM and the TGI (SW-620) was 4.45 µM. For the same molecule, the GI50 (KM12) was 2.47 µM, the LC50 (concentration killing 50% of cells) (KM12) was 22.3 µM and the TGI (KM12) was 6.17 µM. It also gave a GI50 (OVCAR-4) of 1.68 µM, an LC50 (OVCAR-4) of 9.74 µM and a TGI (OVCAR-4) of 4.05 µM. It also gave a GI50 (HOP-62) of 3.31 µM, a TGI (HOP-62) of 11.8 µM and a CC50 (HOP-62; [1]) of 77.8 µM. It also gave a GI50 (MOLT-4) of 1.05 µM, an LC50 (MOLT-4) greater than 100 µM and a TGI (MOLT-4) of 7.43 µM. It also gave a GI50 (SN12C) of 2.49 µM, an LC50 (SN12C) of 86.1 µM and a TGI (SN12C) of 8.08 µM. It also gave a GI50 (SK-MEL-28) of 1.8 µM, an LC50 (SK-MEL-28) of 7.47 µM and a TGI (SK-MEL-28) of 3.67 µM.
